Counter-ions that a name gives are not always drawn.
Experiments:
[1] = target: T1, α-1B adrenoceptor (rat spleen) (Rattus norvegicus, UniProt P15823); assay: Functional antagonism of phenylephrine-induced contraction of rat spleen; format: cell-based; conditions: vs phenylephrine-induced contraction, Schild plot; for Kb: read-out: pA2 Rat Spleen [α-1B] (converted)
T1 construct: PE-induced contraction of rat spleen; from tissue; host or cells: isolated rat spleen
T1 sequence (P15823 1-515): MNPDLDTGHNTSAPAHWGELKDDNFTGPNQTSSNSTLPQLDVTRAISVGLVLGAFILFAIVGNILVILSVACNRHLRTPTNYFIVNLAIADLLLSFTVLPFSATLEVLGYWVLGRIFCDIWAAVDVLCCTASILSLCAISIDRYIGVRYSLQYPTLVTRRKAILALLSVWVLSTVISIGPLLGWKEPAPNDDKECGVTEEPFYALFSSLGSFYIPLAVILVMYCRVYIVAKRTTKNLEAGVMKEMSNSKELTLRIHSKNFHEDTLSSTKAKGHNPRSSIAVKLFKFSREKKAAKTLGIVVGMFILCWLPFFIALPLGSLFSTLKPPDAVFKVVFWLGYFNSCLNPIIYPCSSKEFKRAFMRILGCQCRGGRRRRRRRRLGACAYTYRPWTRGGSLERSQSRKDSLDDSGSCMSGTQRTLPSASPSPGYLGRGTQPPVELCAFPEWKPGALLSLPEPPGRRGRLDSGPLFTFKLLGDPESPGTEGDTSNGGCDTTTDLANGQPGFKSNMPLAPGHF
Excerpt: (§1) Functional assays indicative of pharmacologically defined α-1 adrenoceptors were used to further characterize compounds. Inhibition of phenylephrine (PE)-induced contraction of canine prostate smooth muscle can be correlated with α-1A adrenoceptor activation. […] For each of these models, agonist dose response curves were repeated against increasing concentrations of test agent to derive a Schild plot [log ([…]) against log (molarity of test agent)] to determine the pA2.

[2] = target: T2, α-1A adrenoceptor (rat vas deferens) (Rattus norvegicus, UniProt P43140); assay: Functional antagonism of phenylephrine-induced contraction of rat vas deferens; format: cell-based; conditions: vs phenylephrine-induced contraction, Schild plot; read-out: pA2 Rat Vas Deferens [α-1A] (converted)
T2 construct: PE-induced contraction of rat vas deferens; from tissue; host or cells: isolated rat vas deferens
T2 sequence (P43140 1-466): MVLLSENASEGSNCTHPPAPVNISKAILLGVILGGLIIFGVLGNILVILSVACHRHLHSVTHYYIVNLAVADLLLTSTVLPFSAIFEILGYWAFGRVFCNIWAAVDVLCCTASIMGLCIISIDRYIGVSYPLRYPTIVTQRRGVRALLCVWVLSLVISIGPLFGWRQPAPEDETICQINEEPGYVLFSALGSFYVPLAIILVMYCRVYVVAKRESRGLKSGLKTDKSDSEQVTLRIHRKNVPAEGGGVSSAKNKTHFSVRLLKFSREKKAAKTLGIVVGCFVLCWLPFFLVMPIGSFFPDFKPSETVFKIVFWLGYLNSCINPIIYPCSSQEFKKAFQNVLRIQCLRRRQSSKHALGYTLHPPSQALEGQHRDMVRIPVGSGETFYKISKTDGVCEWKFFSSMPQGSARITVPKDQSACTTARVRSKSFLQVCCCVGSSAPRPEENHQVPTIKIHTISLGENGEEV
Excerpt: as §1

[3] = target: T3, α-1A adrenoceptor (dog prostate); assay: Functional antagonism of phenylephrine-induced contraction of canine prostate strips; format: cell-based, dog (canine); conditions: vs phenylephrine-induced contraction, Schild plot; read-out: pA2 Dog Prostate [α-1A] (converted)
T3 construct: from tissue; host or cells: canine prostate strips
Excerpt: Canine prostate strips were used in vitro as previously described (Hieble, J. P., Boyce, A. J. and Caine, M., Fed. Proc., 45: 2609-2614 (1986)), to determine antagonist potencies against phenylephrine-induced contractions.
as §1

T3 sequence (P35348 whole entry): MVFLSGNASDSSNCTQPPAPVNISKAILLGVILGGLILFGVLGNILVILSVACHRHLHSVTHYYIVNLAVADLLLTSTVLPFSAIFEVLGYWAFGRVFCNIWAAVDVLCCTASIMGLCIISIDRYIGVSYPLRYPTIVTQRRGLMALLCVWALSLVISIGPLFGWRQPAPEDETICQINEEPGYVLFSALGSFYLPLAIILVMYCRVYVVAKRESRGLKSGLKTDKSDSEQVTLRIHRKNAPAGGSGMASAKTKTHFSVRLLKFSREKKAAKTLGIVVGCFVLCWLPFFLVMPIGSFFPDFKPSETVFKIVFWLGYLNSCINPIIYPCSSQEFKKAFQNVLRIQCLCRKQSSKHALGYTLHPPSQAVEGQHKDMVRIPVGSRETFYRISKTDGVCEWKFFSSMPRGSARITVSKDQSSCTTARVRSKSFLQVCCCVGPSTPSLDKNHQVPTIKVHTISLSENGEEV

Structure (SMILES)	Kb [3] [nM]	also measured
COc1cccc2c1CC[C@H]1CN(CCn3c(=O)[nH]c4c(C)csc4c3=O)C[C@@H]21 (relative stereo) [Example 2, hydrochloride]	0.692	Kb [1]: 6.92 nM; Kb [2]: 3.98 nM
COc1cccc2c1CC[C@H]1CN(CCn3c(=O)[nH]c4sccc4c3=O)C[C@@H]21 (relative stereo) [Example 3, hydrochloride]	2.09	Kb [1]: 12.3 nM; Kb [2]: 4.68 nM
COc1cccc2c1CC[C@H]1CN(CCn3c(=O)[nH]c4ccsc4c3=O)C[C@@H]21 (relative stereo) [Example 5, hydrochloride]	0.692	Kb [1]: 4.37 nM; Kb [2]: 6.46 nM
COc1cccc2c1CC[C@H]1CN(CCn3c(=O)[nH]c4cscc4c3=O)C[C@@H]21 (relative stereo) [Example 8, 3-[2-(cis-6-Methoxy-2,3,3a,4,5,9b-hexahydro-[1H]-benz[e]isoindol-1-yl)ethyl]-thieno[3,4d]pyrimidine-2,4(1H,3H)-dione hydrochloride]	0.457	Kb [1]: 5.5 nM; Kb [2]: 3.02 nM
COc1cc2[nH]c(=O)n(CCN3C[C@@H]4CCc5c(OC)cccc5[C@@H]4C3)c(=O)c2cc1OC (relative stereo) [Example 10, hydrochloride]	–	Kb [1]: 129 nM
COc1cc2ncn(CCN3C[C@@H]4CCc5c(OC)cccc5[C@@H]4C3)c(=O)c2cc1OC (relative stereo) [Example 33, 3-[2-(cis-6-Methoxy-2,3,3a,4,5,9b-hexahydro-[1H]-benz[e]isoindol-1-yl)ethyl]-6,7-dimethoxy-quinazoline-4(3H)-one dihydrochloride]	–	Kb [1]: 20.4 nM; Kb [2]: 1.12 nM
COc1cc2[nH]c(=O)n(CCN3C[C@@H]4CCc5c(OC)cccc5[C@@H]4C3)c(=O)c2cc1OC [Example 39, hydrochloride]	–	pA2 Rat Spleen [α-1B] [1]: 7.52
COc1cc2ncn(CCN3C[C@@H]4CCc5c(OC)cccc5[C@@H]4C3)c(=O)c2cc1OC [Example 42, dihydrochloride]	–	Kb [1]: 39.8 nM; Kb [2]: 5.75 nM
COc1cccc2c1CC[C@H]1CN(CCn3c(=O)oc4cc5c(cc4c3=O)OCO5)C[C@@H]21 [Example 55, hydrochloride]	4.9	–
COc1cccc2c1CC[C@H]1CN(CCn3cnc4c(C)c(C)ccc4c3=O)C[C@@H]21 [Example 57, dihydrochloride]	7.24	–
COc1cccc2c1CC[C@H]1CN(CCn3cnc4c(OC)c(OC)ccc4c3=O)C[C@@H]21 [Example 58, dihydrochloride]	1.26	–
COC(=O)c1cc2c(=O)n(CCN3C[C@@H]4CCc5c(OC)cccc5[C@@H]4C3)c(=O)[nH]c2s1 [Example 59, hydrochloride]	3.31	–
COC(=O)c1cc2[nH]c(=O)n(CCN3C[C@@H]4CCc5c(OC)cccc5[C@@H]4C3)c(=O)c2s1 [Example 60, hydrochloride]	0.708	–
CCOC(=O)c1c[nH]c2[nH]c(=O)n(CCN3C[C@@H]4CCc5c(OC)cccc5[C@@H]4C3)c(=O)c12 [Example 61, hydrochloride]	2.29	–
COc1cccc2c1CC[C@H]1CN(CCn3c(=O)[nH]c4c(-c5ccccc5)c(OC)sc4c3=O)C[C@@H]21 [Example 62, hydrochloride]	2.57	–
CCc1c(OC)sc2c(=O)n(CCN3C[C@@H]4CCc5c(OC)cccc5[C@@H]4C3)c(=O)[nH]c12 [Example 63, hydrochloride]	1.35	–

Structure (SMILES)	Kb [3] [nM]	also measured
COc1cccc2c1CC[C@H]1CN(CCn3c(=O)[nH]c4c(C)c(OC)sc4c3=O)C[C@@H]21 [Example 64, 3-[2-((3aR,9bR)-cis-6-Methoxy-2,3,3a,4,5,9b-hexahydro-[1H]-benz[e]isoindol-1-yl)ethyl]-6-methoxy-7-methylthieno [3,2-d]primidine-2,4(1H,3H)-dione hydrochloride]	1.55	–
COc1cccc2c1CC[C@H]1CN(CCn3c(=O)[nH]c4c(C(C)C)c(OC)sc4c3=O)C[C@@H]21 [Example 65, -[2-((3aR,9bR)-cis-6-Methoxy-2,3,3a,4,5,9b-hexahydro-[1H]-benz[e]isoindol-1-yl)ethyl]-6-methoxy-7-isopropylthieno [3,2-d]pyrimidine-2,4(1H,3H)-dione hydrochloride]	2.34	–
COc1cccc2c1CC[C@H]1CN(CCn3c(=O)[nH]c4c(C)c(C)cnc4c3=O)C[C@@H]21 [Example 66, dihydrochloride]	1.15	–
COc1cc2[nH]c(=O)n(CCCCN3C[C@@H]4CCc5cccc(OC)c5[C@@H]4C3)c(=O)c2cc1OC [Example 67, hydrochloride]	4.68	–
COC(=O)c1ccc2c(=O)n(CCN3C[C@@H]4CCc5c(OC)cccc5[C@@H]4C3)c(=O)[nH]c2c1 [Example 69, hydrochloride]	0.575	–
COc1cccc2c1CC[C@H]1CN(CCn3c(=O)[nH]c4cc(C(=O)O)ccc4c3=O)C[C@@H]21 [Example 70, hydrochloride]	1.12	–
CCOC(=O)c1ccc2c(=O)n(CCN3C[C@@H]4CCc5c(OC)cccc5[C@@H]4C3)c(=O)[nH]c2c1 [Example 71, hydrochloride]	3.55	–
COc1cccc2c1CC[C@H]1CN(CCn3c(=O)[nH]c4cc(C(=O)OC(C)C)ccc4c3=O)C[C@@H]21 [Example 73, hydrochloride]	1.23	–
COc1cccc2c1CC[C@H]1CN(CCn3c(=O)[nH]c4cc([N+](=O)[O-])ccc4c3=O)C[C@@H]21 [Example 74, hydrochloride]	1.7	–
COc1cccc2c1CC[C@H]1CN(CCn3c(=O)[nH]c4cc(NC(C)=O)ccc4c3=O)C[C@@H]21 [Example 75, 3-[2-((3aR,9bR)cis-6-Methoxy-2,3,3a,4,5,9b-hexahydro-[1H]-benz[e]isoindolyl-1-yl)ethyl]-7-acetamidoquinazoline-2,4(1H,3H)-dione hydrochloride]	0.661	–
COc1cccc2c1CC[C@H]1CN(CCn3c(=O)[nH]c4cc(NS(C)(=O)=O)ccc4c3=O)C[C@@H]21 [Example 76, 3-[2-((3aR,9bR)cis-6-Methoxy-2,3,3a,4,5,9b-hexahydro-1WH-benz[e]isoindol-1-yl)lethyl]-7-methanesulfamlquinazoline-2,4(1H,3H)-dione hydrochloride]	1.86	–
COc1cccc2c1CC[C@H]1CN(CCn3c(=O)[nH]c4ccccc4c3=O)C[C@@H]21 [Example 79, hydrochloride]	0.977	–
COc1cccc2c1CC[C@H]1CN(CCn3c(=O)[nH]c4c(-c5ccccc5C)csc4c3=O)C[C@@H]21 [Example 84, hydrochloride]	8.13	–
COc1ccccc1-c1csc2c(=O)n(CCN3C[C@@H]4CCc5c(OC)cccc5[C@@H]4C3)c(=O)[nH]c12 [Example 85, 3-[2-((3aR,9bR)cis-6-Methoxy-2,3,3a,4,5,9b-hexahydro-[1H]-benz[e]isoindol-1-yl)ethyl]-7-(2-methoxyphenyl)thieno[3.2-d]pyrimidine-2,4(1H,3H)-dione hydrochloride]	2.82	–
COc1cccc2c1CC[C@H]1CN(CCn3c(=O)[nH]c4nccnc4c3=O)C[C@@H]21 [Example 87, 3-[2-((3aR,9bR)cis-6-Methoxy-2,3 3a,4,5,9b-hexahydro-[1H]-benz[e]isoindol-1-yl)ethyl]-2,4pteridinedione hydrochloride]	1.29	–
COc1cccc2c1CC[C@H]1CN(CCn3c(=O)[nH]c4ncncc4c3=O)C[C@@H]21 [Example 88, 3-[2-((3aR,9bR)cis-6-Methoxy-2,3,3a,4,5,9b-hexahydro-[1H]-benz[e]isoindol-1-yl)ethyl]-p-rimidino[4,5-d]pyrimidine-2,4(1H,3H)-dione hydrochloride]	1.86	–

Reference: patent US5792767A, “Bicyclic substituted hexahydrobenz [e] isoindole alpha-1 adrenergic antagonists” (priority 1995, dated 1998)
